From patent publication US20210261512A1, “NOVEL COMPOUNDS” (INFLAZOME LIMITED, priority 2018, published 2021)

target: NLRP3 (Homo sapiens, UniProt Q96P20); test: THP-1 cells pyroptosis assay; type: cell-based; set-up: Seed THP-1 cells (25,000 cells/well) containing 1.0 μg/ml LPS; host or cells: THP-1; settings: LPS 1.0 μg/ml, nigericin 5 μM, resazurin readout, 10 μM top dose (Example 2: top dose of 30 μM)
Procedure: THP-1 cells (ATCC #TIB-202) were grown in RPMI containing L-glutamine (Gibco #11835) supplemented with imM sodium pyruvate (Sigma #S8636) and penicillin (100 units/ml)/streptomycin (0.1 mg/ml) (Sigma #P4333) in 10% Fetal Bovine Serum (FBS) (Sigma #F0804). The cells were routinely passaged and grown to confluency (˜10^6 cells/ml). On the day of the experiment, THP-1 cells were harvested and resuspended into RPMI medium (without FBS). The cells were then counted and viability (>90%) checked by Trypan blue (Sigma #T8154). Appropriate dilutions were made to give a concentration of 625,000 cells/ml. To this diluted cell solution was added LPS (Sigma #L4524) to give a 1 μg/ml Final Assay Concentration (FAC). 40 μl of the final preparation was aliquoted into each well of a 96-well plate. The plate thus prepared was used for compound screening.
The following method step-by-step assay was followed for compound screening. • 1. Seed THP-1 cells (25,000 cells/well) containing 1.0 μg/ml LPS in 40 μl of RPMI medium (without FBS) in 96-well, black walled, clear bottom cell culture plates coated with poly-D-lysine (VWR #734-0317) • 2. Add 5 μl compound (8 points four-fold dilution or 8 points half-log dilution, with 10 μM top dose, unless stated otherwise) or vehicle (DMSO 0.1% FAC) to the appropriate wells • 3. Incubate for 3 hrs at 37° C. and 5% CO2 • 4. Add 5 μl nigericin (Sigma #N7143) (FAC 5 μM) to all wells • 5. Incubate for 1 hr at 37° C. and 5% CO2 • 6. At the end of the incubation period, spin plates at 300×g for 3 mins and remove supernatant • 7. Then add 50 μl of resazurin (Sigma #R^7017) (FAC 100 μM resazurin in RPMI medium without FBS) and incubate plates for a further 1-2 hrs at 37° C. and 5% CO2 • 8. Plates were read in an Envision reader at Ex 560 nm and Em 590 nm • 9. IC50 data is fitted to a non-linear regression equation (log inhibitor vs response-variable slope 4-parameters)

Sequence of NLRP3 (Q96P20 whole entry): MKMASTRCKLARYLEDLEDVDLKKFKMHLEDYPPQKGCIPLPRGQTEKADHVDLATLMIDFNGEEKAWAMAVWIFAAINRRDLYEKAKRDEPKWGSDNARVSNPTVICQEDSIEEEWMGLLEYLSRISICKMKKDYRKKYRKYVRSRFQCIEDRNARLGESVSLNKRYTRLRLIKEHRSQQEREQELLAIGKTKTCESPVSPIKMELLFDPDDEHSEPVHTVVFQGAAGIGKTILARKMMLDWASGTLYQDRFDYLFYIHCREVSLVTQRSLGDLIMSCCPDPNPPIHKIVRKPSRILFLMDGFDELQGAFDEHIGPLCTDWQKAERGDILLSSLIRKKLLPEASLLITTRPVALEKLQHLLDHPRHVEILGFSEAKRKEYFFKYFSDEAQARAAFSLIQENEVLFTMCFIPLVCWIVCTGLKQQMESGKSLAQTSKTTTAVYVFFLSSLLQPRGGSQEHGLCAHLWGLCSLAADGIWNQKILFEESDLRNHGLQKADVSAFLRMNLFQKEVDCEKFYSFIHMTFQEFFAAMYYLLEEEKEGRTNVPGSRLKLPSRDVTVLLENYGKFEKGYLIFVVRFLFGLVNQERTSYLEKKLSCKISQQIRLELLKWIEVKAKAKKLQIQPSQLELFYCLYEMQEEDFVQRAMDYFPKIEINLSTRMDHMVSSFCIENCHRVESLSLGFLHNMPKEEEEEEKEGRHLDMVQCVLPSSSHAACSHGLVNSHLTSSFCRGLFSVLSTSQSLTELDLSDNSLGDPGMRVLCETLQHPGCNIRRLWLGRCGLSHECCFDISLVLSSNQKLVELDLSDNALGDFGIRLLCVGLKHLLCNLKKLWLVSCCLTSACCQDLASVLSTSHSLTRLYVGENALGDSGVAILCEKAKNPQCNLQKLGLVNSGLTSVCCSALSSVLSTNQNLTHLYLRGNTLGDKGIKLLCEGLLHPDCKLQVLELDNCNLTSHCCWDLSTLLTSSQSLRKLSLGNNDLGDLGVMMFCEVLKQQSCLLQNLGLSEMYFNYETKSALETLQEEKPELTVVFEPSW

Row | Compound | IC50 [µM]
1 | CC(=O)NCCNS(=O)(=O)c1nnc(Nc2c3c(cc4c2CCC4)CCC3)[nH]1 [Example 115, N-(2-(5-((1,2,3,5,6,7-hexahydro-s-indacen-4-yl)amino)-4H-1,2,4-triazole-3-sulfonamido)ethyl)acetamide] | ≤ 5
2 | CC(C)(O)CCNS(=O)(=O)c1nnc(Nc2c3c(cc4c2CCC4)CCC3)[nH]1 [Example 116, 5-((1,2,3,5,6,7-hexahydro-s-indacen-4-yl)amino)-N-(3-hydroxy-3-methylbutyl)-4H-1,2,4-triazole-3-sulfonamide] | ≤ 5
3 | O=C1CCC(CNS(=O)(=O)c2nnc(Nc3c4c(cc5c3CCC5)CCC4)[nH]2)N1 (stereo not drawn) [Example 121, 5-((1,2,3,5,6,7-hexahydro-s-indacen-4-yl)amino)-N-((5-oxopyrrolidin-2-yl)methyl)-4H-1,2,4-triazole-3-sulfonamide] | ≤ 10
4 | O=S(=O)(c1nnc(Nc2c3c(cc4c2CCC4)CCC3)[nH]1)N1CCC(O)C1 (stereo not drawn) [Example 123, 1-((5-((1,2,3,5,6,7-hexahydro-s-indacen-4-yl)amino)-4H-1,2,4-triazol-3-yl)sulfonyl)pyrrolidin-3-ol] | ≤ 5
5 | O=S(=O)(c1nnc(Nc2c3c(cc4c2CCC4)CCC3)[nH]1)N1CCC(N2CCOCC2)C1 (stereo not drawn) [Example 127, N-(1,2,3,5,6,7-hexahydro-s-indacen-4-yl)-5-((3-morpholinopyrrolidin-1-yl)sulfonyl)-4H-1,2,4-triazol-3-amine] | ≤ 5
6 | O=S(=O)(NCCN1CCOCC1)c1nnc(Nc2c3c(cc4c2CCC4)CCC3)[nH]1 [Example 129, 5-((1,2,3,5,6,7-hexahydro-s-indacen-4-yl)amino)-N-(2-morpholinoethyl)-4H-1,2,4-triazole-3-sulfonamide] | ≤ 5
7 | CN1CCN(CCNS(=O)(=O)c2nnc(Nc3c4c(cc5c3CCC5)CCC4)[nH]2)CC1 [Example 131, 5-((1,2,3,5,6,7-hexahydro-s-indacen-4-yl)amino)-N-(2-(4-methylpiperazin-1-yl)ethyl)-4H-1,2,4-triazole-3-sulfonamide] | ≤ 5
8 | O=S(=O)(NCCc1ccccc1)c1nnc(Nc2c3c(cc4c2CCC4)CCC3)[nH]1 [Example 134, 5-((1,2,3,5,6,7-hexahydro-s-indacen-4-yl)amino)-N-phenethyl-4H-1,2,4-triazole-3-sulfonamide] | ≤ 5
9 | CN1CCN(C2CCN(S(=O)(=O)c3nnc(Nc4c5c(cc6c4CCC6)CCC5)[nH]3)CC2)CC1 [Example 135, N-(1,2,3,5,6,7-hexahydro-s-indacen-4-yl)-5-((4-(4-methylpiperazin-1-yl)piperidin-1-yl)sulfonyl)-4H-1,2,4-triazol-3-amine] | ≤ 5
10 | CNC(=O)C1CCN(S(=O)(=O)c2nnc(Nc3c4c(cc5c3CCC5)CCC4)[nH]2)C1 (stereo not drawn) [Example 140, 1-((5-((1,2,3,5,6,7-hexahydro-s-indacen-4-yl)amino)-4H-1,2,4-triazol-3-yl)sulfonyl)-N-methylpyrrolidine-3-carboxamide] | ≤ 5
11 | CN1CC2CCN(S(=O)(=O)c3nnc(Nc4c5c(cc6c4CCC6)CCC5)[nH]3)C2C1 (stereo not drawn) [Example 142, N-(1,2,3,5,6,7-hexahydro-s-indacen-4-yl)-5-((5-methylhexahydropyrrolo[3,4-b]pyrrol-1 (2H)-yl)sulfonyl)-4H-1,2,4-triazol-3-amine] | ≤ 5
12 | COc1cc(-c2cc(F)cc(C(C)C)c2Cc2nnc(S(=O)(=O)c3ccccc3)[nH]2)ccn1 [Example 155, 4-(5-fluoro-3-isopropyl-2-((5-(phenylsulfonyl)-4H-1,2,4-triazol-3-yl)-methyl)phenyl)-2-methoxypyridine] | ≤ 10
13 | O=S(=O)(c1nnc(Nc2c3c(cc4c2CCC4)CCC3)[nH]1)C1CCOCC1 [Example 157, N-(1,2,3,5,6,7-hexahydro-s-indacen-4-yl)-5-((tetrahydro-2H-pyran-4-yl)sulfonyl)-4H-1,2,4-triazol-3-amine] | ≤ 10
14 | CN(C)CC1CCN(S(=O)(=O)c2nnc(Cc3c4c(cc5c3CCC5)CCC4)[nH]2)C1 (stereo not drawn) [Example 158, 1-(1-((5-((1,2,3,5,6,7-hexahydro-s-indacen-4-yl)methyl)-4H-1,2,4-triazol-3-yl)sulfonyl)pyrrolidin-3-yl)-N,N-dimethylmethanamine] | ≤ 5
15 | COc1cc(-c2ccc3c(c2Cc2nnc(S(=O)(=O)N4CCC(CN(C)C)C4)[nH]2)CCC3)ccn1 (stereo not drawn) [Example 160, 1-(1-((5-((5-(2-methoxypyridin-4-yl)-2,3-dihydro-1H-inden-4-yl)-methyl)-4H-1,2,4-triazol-3-yl)sulfonyl)pyrrolidin-3-yl)-N,N-dimethylmethanamine] | ≤ 5
16 | CC(C)c1cc(F)cc(C(C)C)c1Cc1nnc(S(=O)(=O)N2CCC(CN(C)C)C2)[nH]1 (stereo not drawn) [Example 161, 1-(1-((5-(4-fluoro-2,6-diisopropylbenzyl)-4H-1,2,4-triazol-3-yl)-sulfonyl)pyrrolidin-3-yl)-N,N-dimethylmethanamine] | ≤ 5
17 | O=S(=O)(c1cccnn1)c1n[nH]c(Nc2c3c(cc4c2CCC4)CCC3)n1 [Example 167, N-(1,2,3,5,6,7-hexahydro-s-indacen-4-yl)-3-(pyridazin-3-ylsulfonyl)-1H-1,2,4-triazol-5-amine] | ≤ 5
18 | O=S(=O)(c1ccnnc1)c1n[nH]c(Nc2c3c(cc4c2CCC4)CCC3)n1 [Example 168, N-(1,2,3,5,6,7-hexahydro-s-indacen-4-yl)-3-(pyridazin-4-ylsulfonyl)-1H-1,2,4-triazol-5-amine] | ≤ 5
19 | O=S(=O)(c1cncnc1)c1n[nH]c(Nc2c3c(cc4c2CCC4)CCC3)n1 [Example 169, N-(1,2,3,5,6,7-hexahydro-s-indacen-4-yl)-3-(pyrimidin-5-ylsulfonyl)-1H-1,2,4-triazol-5-amine] | ≤ 10
20 | O=S(=O)(c1ccccn1)c1nnc(Nc2c3c(cc4c2CCC4)CCC3)[nH]1 [Example 170, N-(1,2,3,5,6,7-hexahydro-s-indacen-4-yl)-5-(pyridin-2-ylsulfonyl)-4H-1,2,4-triazol-5-amine] | ≤ 1
21 | O=S(=O)(c1ccncc1)c1nnc(Nc2c3c(cc4c2CCC4)CCC3)[nH]1 [Example 171, N-(1,2,3,5,6,7-hexahydro-s-indacen-4-yl)-5-(pyridin-4-ylsulfonyl)-4H-1,2,4-triazol-3-amine] | ≤ 5
22 | CC(C)(O)c1cccc(S(=O)(=O)c2nnc(Nc3c4c(cc5c3CCC5)CCC4)[nH]2)c1 [Example 172, 2-(3-((5-((1,2,3,5,6,7-hexahydro-s-indacen-4-yl)amino)-4H-1,2,4-triazol-3-yl)sulfonyl)phenyl)propan-2-ol] | ≤ 1
23 | COc1ccccc1S(=O)(=O)c1nnc(Nc2c3c(cc4c2CCC4)CCC3)[nH]1 [Example 173, N-(1,2,3,5,6,7-hexahydro-s-indacen-4-yl)-5-((2-methoxyphenyl)sulfonyl)-4H-1,2,4-triazol-3-amine] | ≤ 1
24 | Cc1cccc(S(=O)(=O)c2nnc(Nc3c4c(cc5c3CCC5)CCC4)[nH]2)c1 [Example 174, N-(1,2,3,5,6,7-hexahydro-s-indacen-4-yl)-5-(m-tolylsulfonyl)-4H-1,2,4-triazol-3-amine] | ≤ 5
25 | COc1cccc(S(=O)(=O)c2nnc(Nc3c4c(cc5c3CCC5)CCC4)[nH]2)c1 [Example 175, N-(1,2,3,5,6,7-hexahydro-s-indacen-4-yl)-5-((3-methoxyphenyl)sulfonyl)-4H-1,2,4-triazol-3-amine] | ≤ 5
26 | O=S(=O)(c1cccnc1)c1nnc(Nc2c3c(cc4c2CCC4)CCC3)[nH]1 [Example 177, N-(1,2,3,5,6,7-hexahydro-s-indacen-4-yl)-5-(pyridin-3-ylsulfonyl)-4H-1,2,4-triazol-3-amine] | ≤ 5
27 | O=S(=O)(c1cccc(F)c1)c1nnc(Nc2c3c(cc4c2CCC4)CCC3)[nH]1 [Example 178, 5-((3-fluorophenyl)sulfonyl)-N-(1,2,3,5,6,7-hexahydro-s-indacen-4-yl)-4H-1,2,4-triazol-3-amine] | ≤ 5
28 | CN1Cc2ccc(S(=O)(=O)c3n[nH]c(Nc4c5c(cc6c4CCC6)CCC5)n3)cc2C1=O [Example 180, 6-((5-((1,2,3,5,6,7-hexahydro-s-indacen-4-yl)amino)-1H-1,2,4-triazol-3-yl)sulfonyl)-2-methylisoindolin-1-one] | ≤ 5
29 | O=S(=O)(c1ccc(F)cc1)c1nnc(Nc2c3c(cc4c2CCC4)CCC3)[nH]1 [Example 181, 5-((4-fluorophenyl)sulfonyl)-N-(1,2,3,5,6,7-hexahydro-s-indacen-4-yl)-4H-1,2,4-triazol-3-amine] | ≤ 5
30 | Cc1ccc(S(=O)(=O)c2nnc(Nc3c4c(cc5c3CCC5)CCC4)[nH]2)cc1 [Example 182, N-(1,2,3,5,6,7-hexahydro-s-indacen-4-yl)-5-tosyl-4H-1,2,4-triazol-3-amine] | ≤ 5
